Reference: ChEMBL document CHEMBL1201862, “PubChem BioAssay data set” (2004)
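The compound was tested at five concentrations on cells cultured in 96-well plates, with a 48-hour exposure period. Here, GI50 denotes the concentration required for 50% inhibition of growth.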 Active and inactive are the calls of the source. Cut-off read from the data, not from the text of the source: active = GI50 up to about 1.1 µM and inactive = higher.

Key:
Assay in all cases: NCI-60 cell line screen, 48 h
IGROV-1 = system: IGROV-1
SF-268 = system: SF-268
OVCAR-5 = system: OVCAR-5
CCRF-CEM = system: CCRF-CEM
SF-539 = system: SF-539
UACC-257 = system: UACC-257
RPMI-8226 = system: RPMI-8226
ACHN = system: ACHN
M14 = system: M14
OVCAR-4 = system: OVCAR-4
LOX IMVI = system: LOX IMVI
KM12 = system: KM12
SK-MEL-5 = system: SK-MEL-5
MOLT-4 = system: MOLT-4
SF-295 = system: SF-295
SNB-75 = system: SNB-75
SK-MEL-28 = system: SK-MEL-28
U-251 = system: U-251

| Structure (SMILES) | GI50 (IGROV-1) | GI50 (SF-268) | GI50 (OVCAR-5) | GI50 (CCRF-CEM) | GI50 (SF-539) | GI50 (UACC-257) | GI50 (RPMI-8226) | GI50 (ACHN) | GI50 (M14) | GI50 (OVCAR-4) | GI50 (LOX IMVI) | GI50 (KM12) | GI50 (SK-MEL-5) | GI50 (MOLT-4) | GI50 (SF-295) | GI50 (SNB-75) | GI50 (SK-MEL-28) | GI50 (U-251) |
| --- | --- | --- | --- | --- | --- | --- | --- | --- | --- | --- | --- | --- | --- | --- | --- | --- | --- | --- |
| O=C1C=C[C@@]23CC1C(O)C[C@H]2C=Cc1ccccc13 (some centres undefined) | > 100 µM (inactive) | > 100 µM (inactive) | > 100 µM (inactive) | > 100 µM (inactive) | > 100 µM (inactive) | > 100 µM (inactive) | > 100 µM (inactive) | > 100 µM (inactive) | > 100 µM (inactive) | > 100 µM (inactive) | > 100 µM (inactive) | > 100 µM (inactive) | > 100 µM (inactive) | > 100 µM (inactive) | > 100 µM (inactive) | 91.6 µM (inactive) |  |  |
| O=[N+]([O-])c1cccc(C2=NOC(C3CCCCC3)C2)c1 (centres undefined) | > 100 µM (inactive) | > 100 µM (inactive) | 92 µM (inactive) | > 100 µM (inactive) | > 100 µM (inactive) | > 100 µM (inactive) |  | > 100 µM (inactive) | > 100 µM (inactive) | > 100 µM (inactive) |  | > 100 µM (inactive) | > 100 µM (inactive) | > 100 µM (inactive) | 94.6 µM (inactive) | > 100 µM (inactive) | > 100 µM (inactive) | > 100 µM (inactive) |
| COc1cc([C@H]2c3cc4c(cc3[C@H](NCc3ccc(F)cc3)C3COC(=O)[C@H]32)OCO4)cc(OC)c1O (some centres undefined) | 1.44 µM (inactive) | 6.18 µM (inactive) | 8.91 µM (inactive) | 0.923 µM (active) | 1.79 µM (inactive) | 14.8 µM (inactive) | 2.31 µM (inactive) | 1.13 µM (inactive) | 3.19 µM (inactive) | 37.6 µM (inactive) | 2.64 µM (inactive) | 3.33 µM (inactive) |  | 0.344 µM (active) | 2.25 µM (inactive) | 2.08 µM (inactive) | 11 µM (inactive) | 1.09 µM (active) |
| CC(=O)c1ccc(NC(=O)C(=O)C(C(=O)c2ccc(Cl)c(Cl)c2)C2OC(=O)c3ccccc32)cc1 (centres undefined) | 29.7 µM (inactive) | 16.3 µM (inactive) | 21.5 µM (inactive) | 73.3 µM (inactive) |  | 23.4 µM (inactive) |  | 20.5 µM (inactive) | 17.7 µM (inactive) | 26.5 µM (inactive) | 14.4 µM (inactive) | 20.1 µM (inactive) |  | > 100 µM (inactive) |  |  |  | 10.1 µM (inactive) |
| COc1ccc(-c2cnoc2-c2ccc(OC)c(OC)c2)cc1OC | 1.29 µM (inactive) | 2.32 µM (inactive) | 3.72 µM (inactive) | 1.73 µM (inactive) | 1.2 µM (inactive) | 5.53 µM (inactive) | 1.54 µM (inactive) | 4.68 µM (inactive) | 0.851 µM (active) | 18.9 µM (inactive) | 1.42 µM (inactive) | 0.746 µM (active) | 0.908 µM (active) | 0.893 µM (active) | 0.883 µM (active) | 1.78 µM (inactive) | 1.62 µM (inactive) | 2.34 µM (inactive) |
| CN(C)c1ccc(/C=C2\CCc3ccccc3C2=O)cc1Br |  | 65 µM (inactive) | > 100 µM (inactive) | 36 µM (inactive) | > 100 µM (inactive) | 43.6 µM (inactive) | 24.8 µM (inactive) | > 100 µM (inactive) | 53.6 µM (inactive) | 83.9 µM (inactive) | 32.7 µM (inactive) | 38.5 µM (inactive) | 25.8 µM (inactive) | 32.6 µM (inactive) | > 100 µM (inactive) | > 100 µM (inactive) | 71.1 µM (inactive) | 71.8 µM (inactive) |
| Cc1c2n(c(=O)[nH]c1=O)C1OC(CO)C(O2)C1N=[N+]=[N-] (centres undefined) | > 100 µM (inactive) | > 100 µM (inactive) |  | > 100 µM (inactive) | > 100 µM (inactive) | > 100 µM (inactive) | > 100 µM (inactive) | > 100 µM (inactive) |  | > 100 µM (inactive) | > 100 µM (inactive) | > 100 µM (inactive) | > 100 µM (inactive) | > 100 µM (inactive) | > 100 µM (inactive) | > 100 µM (inactive) | > 100 µM (inactive) | > 100 µM (inactive) |
| COc1ccc(C(=O)O)c2c(=O)c3ccccc3[nH]c12 | > 100 µM (inactive) | > 100 µM (inactive) | > 100 µM (inactive) | > 31.6 µM (inactive) | > 100 µM (inactive) | > 100 µM (inactive) | > 100 µM (inactive) | > 100 µM (inactive) | > 31.6 µM (inactive) | > 100 µM (inactive) | > 100 µM (inactive) | > 100 µM (inactive) |  | > 100 µM (inactive) | > 100 µM (inactive) |  | > 100 µM (inactive) | > 100 µM (inactive) |
| COc1ccc(C2S/C(=C\c3cccc(OC)c3)C(=O)N2NC(=O)Cc2ccccc2)cc1 (centres undefined) | > 100 µM (inactive) | > 100 µM (inactive) | > 100 µM (inactive) | > 100 µM (inactive) | > 100 µM (inactive) | > 100 µM (inactive) | > 100 µM (inactive) | > 100 µM (inactive) | > 100 µM (inactive) | > 100 µM (inactive) | > 100 µM (inactive) | > 100 µM (inactive) | > 100 µM (inactive) | > 100 µM (inactive) | > 100 µM (inactive) | > 100 µM (inactive) | > 100 µM (inactive) | > 100 µM (inactive) |
| Cc1cnc2c(C)ccc([N+](=O)[O-])c2c1NCCCN(C)C | > 100 µM (inactive) | > 100 µM (inactive) | > 100 µM (inactive) | > 100 µM (inactive) | > 100 µM (inactive) | > 100 µM (inactive) | > 100 µM (inactive) | > 100 µM (inactive) | > 100 µM (inactive) | > 100 µM (inactive) | > 100 µM (inactive) | > 100 µM (inactive) |  | > 100 µM (inactive) | > 100 µM (inactive) |  | > 100 µM (inactive) | > 100 µM (inactive) |
| CC(=O)NC1=C(NCCN(C)C)C(=O)c2ccccc2C1=O | 14.7 µM (inactive) | 21.5 µM (inactive) |  | 15.4 µM (inactive) | 11.7 µM (inactive) | 9.25 µM (inactive) |  | 16.9 µM (inactive) | 18.4 µM (inactive) | 8.93 µM (inactive) | 12.6 µM (inactive) | 15.8 µM (inactive) | 7.21 µM (inactive) | 21.9 µM (inactive) | 15.2 µM (inactive) | 25.5 µM (inactive) | > 50 µM (inactive) | 10.3 µM (inactive) |
| CCc1cc(C(=O)OC)cn1C(=N)c1ccc(Cl)cc1 | > 100 µM (inactive) | > 100 µM (inactive) | > 100 µM (inactive) | > 100 µM (inactive) | > 100 µM (inactive) | > 100 µM (inactive) | > 100 µM (inactive) | > 100 µM (inactive) | > 100 µM (inactive) | > 100 µM (inactive) | > 100 µM (inactive) | > 100 µM (inactive) | > 100 µM (inactive) | > 100 µM (inactive) | > 100 µM (inactive) | 87.5 µM (inactive) | > 100 µM (inactive) | > 100 µM (inactive) |
| COC(=O)C(=O)C(C(=O)C=C(C)C)C(=O)C(=O)Nc1cc(C(F)(F)F)ccc1Cl (centres undefined) | > 100 µM (inactive) | > 100 µM (inactive) | > 100 µM (inactive) | 21.3 µM (inactive) | > 100 µM (inactive) | 70.3 µM (inactive) | 24.4 µM (inactive) | > 100 µM (inactive) | > 100 µM (inactive) | > 100 µM (inactive) | 46.9 µM (inactive) | > 100 µM (inactive) | > 100 µM (inactive) | > 100 µM (inactive) | > 100 µM (inactive) | > 100 µM (inactive) | > 100 µM (inactive) | > 100 µM (inactive) |
| CC1=Nc2ccccc2NC(c2ccoc2)C1 (centres undefined) | > 100 µM (inactive) | > 100 µM (inactive) | > 100 µM (inactive) | > 100 µM (inactive) | > 100 µM (inactive) | > 100 µM (inactive) | > 100 µM (inactive) | > 100 µM (inactive) | > 100 µM (inactive) | > 100 µM (inactive) | > 100 µM (inactive) | > 100 µM (inactive) | > 100 µM (inactive) | > 100 µM (inactive) | > 100 µM (inactive) | > 100 µM (inactive) | > 100 µM (inactive) | > 100 µM (inactive) |
| CCCCCCCCOCC(COC(=O)CCCCCCC)OC(=O)CCCCCCC (centres undefined) | > 100 µM (inactive) | > 100 µM (inactive) | > 100 µM (inactive) | 57 µM (inactive) |  | > 100 µM (inactive) | > 100 µM (inactive) | > 100 µM (inactive) | > 100 µM (inactive) | > 100 µM (inactive) | > 100 µM (inactive) |  | > 100 µM (inactive) | > 100 µM (inactive) | > 100 µM (inactive) |  | > 100 µM (inactive) | > 100 µM (inactive) |
| Cc1cc(N(CCC#N)CCC#N)ccc1/N=N/c1ccc(Br)cc1 | 10.9 µM (inactive) | 22.3 µM (inactive) | > 100 µM (inactive) | > 31.6 µM (inactive) | 17.8 µM (inactive) | > 100 µM (inactive) | > 45.9 µM (inactive) | 9.12 µM (inactive) | 9.02 µM (inactive) | > 100 µM (inactive) | > 21.7 µM (inactive) | > 23.8 µM (inactive) | 12.3 µM (inactive) | 19.3 µM (inactive) | 21.4 µM (inactive) |  | > 100 µM (inactive) | 19.5 µM (inactive) |
